Measurements reported in patent publication US20050276767A1, “Composition containing an oily phase and a naphthopyran dye, cosmetic treatment processes” (L'OREAL, priority 2002, published 2005).

Tests used:
Assay type in all cases: physicochemical
[1] = ΔE before/after UVA irradiation of dyes at 1% in a white lipstick base (Example 5); conditions: 1% by weight dye in white lipstick base; UVA 2 mW/cm^2 for two minutes
Protocol: The ΔE (before and after UV irradiation for 2 minutes) of various photochromic dyes according to the invention was determined, at 1% by weight in a white lipstick base comprising:
A composition comprising 1% of dye according to the invention and 99% of the above base is thus prepared.
(§1) The L, a and b measurements were performed on a Leneta brand contrast card of reference Form 1A Penopac, for a composition spread to a thickness of 50 microns.
(§2) The reflection measurements were performed using a Minolta 3700D spectrocolorimeter.
(§3) The initial trichromatic coordinates of the composition before irradiation (L0, a0 and b0) were thus determined.
(§4) The compositions were then subjected to a UV irradiation (flux of 2 mW/cm^2 of a UVA radiation) for two minutes and then, immediately after stopping the irradiation, the trichromatic coordinates after irradiation (L, a and b) were determined. Less than 5 seconds elapsed between the stopping of the irradiation and the determination of the new coordinates.
(§5) The ΔE was then calculated in the following manner: ΔE=[(L−L0)^2+(a−a0)^2+(b−b0)^2]^1/2

[2] = ΔE of oil + dye mixtures after UVA irradiation (Example 7); parameters: key: ΔE = [(Lm′−Lm)^2+(am′−am)^2+(bm′−bm)^2]^1/2, before vs after UVA; conditions: UVA 2 mW/cm^2 for 2 minutes
Protocol: The mixtures prepared in Example 6 were irradiated with UV (flux of 2 mW/cm^2 of UVA) for 2 minutes.
The trichromatic coordinates of the mixture after irradiation (Lm′, am′ and bm′) were again determined, as in Example 2, and the ΔE was calculated in the following manner: ΔE=[(Lm′−Lm)^2+(am′−am)^2+(bm′−bm)^2]^1/2.
Less than 5 seconds elapsed between stopping the irradiation and determining the new coordinates.

[3] = ΔE before/after UVA irradiation of wax-structured compositions, 50 micron film on contrast card, reflection (Examples 3 and 8)
Protocol: as §1, §2
The initial trichromatic coordinates of the composition before irradiation (L0, a0 and b0) were thus determined. The composition was then subjected to a UV irradiation (flux of 2 mW/cm^2 of a UVA radiation) for two minutes and then, immediately after stopping the irradiation, the trichromatic coordinates after irradiation (L, a and b) were determined. Less than 5 seconds elapsed between the stopping of the irradiation and the determination of the new coordinates.
The ΔE was then calculated in the following manner: ΔE=[(L−L0)^2+(a−a0)^2+(b−b0) ^2]^1/2
A composition was prepared, comprising: • 0.05% by weight of 3-phenyl-3-(4-piperidinophenyl)-6-morpholino-3H-naphtho[2,1-b]pyran (Reversacol Ruby from James Robinson), • 15% by weight of polyethylene wax (apolar wax), • qs 100% of phenylsilicone oil (DC556 from Dow Corning).
as §3
as §4, with “composition was” for “compositions were”
as §5
15% by weight of polyethylene wax (apolar wax) was added to the mixtures prepared in Example 6 (oils+0.05% by weight of Reversacol Ruby dye), and the trichromatic coordinates L, a and b were then measured, before and after irradiation with UV for 2 minutes (flux of 2 mW/cm^2 of UVA) on thin films of composition, 50 microns thick, poured onto a contrast card.
To do this, a Minolta 3700D spectrocolorimeter in reflection mode was used; less than 5 seconds elapsed between stopping the irradiation and determining the new coordinates.

[4] = Visual colour change of the dye solution in phenylsilicone oil on UV (sunlight) irradiation (Example 2); conditions: 0.05% by weight in phenylsilicone oil DC556
Protocol: A solution comprising 0.05% by weight of 3-phenyl-3-(4-piperidinophenyl)-6-morpholino-3H-naphtho[2,1-b]pyran (Reversacol Ruby from James Robinson) in a phenylsilicone oil (DC556 from Dow Corning) was prepared. The mixture was then irradiated with UV (sunlight) for 2 minutes.

[5] = Solvatochromism: ΔE′ of oil + dye mixture versus oil alone, transmission, no UV (Example 6); parameters: key: ΔE′ = √(ΔL²+Δa²+Δb²), oil alone vs oil+dye, transmission; conditions: without UV
Protocol: The trichromatic coordinates (Lh, ah and bh) of the oil alone and of the oil+dye mixture (Lm, am and bm) were thus determined, and the ΔE′ was calculated in the following manner: ΔE′=[Lh−Lm)^2+(ah−am)^2+(bh−bm)^2]^1/2.
To do this, a Minolta 3700D spectrocolorimeter in transmission mode was used, with a plastic cuvette (“cuvette walls+oil+optional dye” optical path length=1 cm).

[6] = Solubility of the dye in various silicone oils, observed with the naked eye (Example 1)
Protocol: The term “soluble” means that the dyes form a uniform mixture, free of particles that are apparent to the naked eye, at 25° C. and 1 atmosphere, in a proportion of 0.05% by weight in the oily phase.
The solubility of a dye according to the invention in various silicone oils was studied. Several mixtures comprising 0.05% by weight of 3-phenyl-3-(4-piperidinophenyl)-6-morpholino-3H-naphtho[2,1-b]pyran (Reversacol Ruby from James Robinson) in various oils were thus prepared, and the mixture was then heated to 60° C. with stirring.

[7] = 0.05% dye in Capric/caprylic acid triglyceride
[8] = 0.05% dye in Diisostearyl malate
[9] = 0.05% dye in Hydrogenated polyisobutene
[10] = 0.05% dye in Isononyl isononanoate
[11] = 0.05% dye in Tridecyl trimellitate

COc1ccc(C2(c3ccc(OC)cc3)C=Cc3c(cc(N4CCOCC4)c4ccccc34)O2)cc1 [3,3-di(4-methoxyphenyl)-6-morpholino-3H-naphtho-[2,1-b]pyran]
ΔE [1]: 51

C1=CC(c2ccccc2)(c2ccc(N3CCCCC3)cc2)Oc2cc(N3CCOCC3)c3ccccc3c21 (stereo not drawn) [Reversacol Ruby, 3-phenyl-3-(4-piperidinophenyl)-6-morpholino-3H-naphtho[2,1-b]pyran]
ΔE [2, 7]: 23.70 | ΔE ([2]; 0.05% dye in Castor oil): 19.02 | ΔE [2, 8]: 38.79 | ΔE [2, 9]: 17.69 | ΔE ([2]; 0.05% dye in Isododecane): 19.17 | ΔE [2, 10]: 25.47 | ΔE ([2]; 0.05% dye in Octyldodecanol): 20.88 | ΔE [2, 11]: 13.74 | ΔE ([2]; 0.05% dye in Triisononanoin): 21.62 | ΔE ([3]; 0.05% dye, 15% polyethylene wax, qs phenylsilicone oil DC556, UVA 2 mW/cm^2 for two minutes): 37.38 | ΔE ([3]; 15% wax + 0.05% dye in Castor oil, UVA 2 mW/cm^2 for 2 minutes, 50 micron film): 26.75 | ΔE ([3]; 15% wax + 0.05% dye in Diisostearyl malate, UVA 2 mW/cm^2 for 2 minutes, 50 micron film): 43.12 | ΔE ([3]; 15% wax + 0.05% dye in Hydrogenated polyisobutene, UVA 2 mW/cm^2 for 2 minutes, 50 micron film): 18.36 | ΔE ([3]; 15% wax + 0.05% dye in Isododecane, UVA 2 mW/cm^2 for 2 minutes, 50 micron film): 27.21 | ΔE ([3]; 15% wax + 0.05% dye in Isononyl isononanoate, UVA 2 mW/cm^2 for 2 minutes, 50 micron film): 27.74 | ΔE ([3]; 15% wax + 0.05% dye in Octyldodecanol, UVA 2 mW/cm^2 for 2 minutes, 50 micron film): 31.09 | ΔE ([3]; 15% wax + 0.05% dye in Tridecyl trimellitate, UVA 2 mW/cm^2 for 2 minutes, 50 micron film): 31.98 | ΔE ([3]; 15% wax + 0.05% dye in Triisononanoin, UVA 2 mW/cm^2 for 2 minutes, 50 micron film): 33.70 | ΔE [1]: 49 | Initial coloration of the mixture before irradiation [4]: pink | Coloration after irradiation ([4]; UV (sunlight) for 2 minutes): strong orange-red | ΔE′ of the oil + dye mixture [5, 7]: 12.4093 | ΔE′ of the oil + dye mixture ([5]; 0.05% dye in Castor oil): 33.6278 | ΔE′ of the oil + dye mixture [5, 8]: 12.9041 | ΔE′ of the oil + dye mixture [5, 9]: 6.6920 | ΔE′ of the oil + dye mixture ([5]; 0.05% dye in Isododecane): 4.2421 | ΔE′ of the oil + dye mixture [5, 10]: 7.7386 | ΔE′ of the oil + dye mixture ([5]; 0.05% dye in Octyldodecanol): 37.6049 | ΔE′ of the oil + dye mixture [5, 11]: 14.2178 | ΔE′ of the oil + dye mixture ([5]; 0.05% dye in Triisononanoin): 12.8122 | Dissolution at elevated temperature (60° C.) ([6]; 0.05% by weight dye in Phenyltrimethylsiloxytrisiloxane (20 cSt) DC556 from Dow Corning): Total dissolution | Dissolution at elevated temperature (60° C.) ([6]; 0.05% by weight dye in Polyphenyltrimethylsiloxydimethylsiloxane (1000 cSt) Belsil PDM 1000 from Wacker): Total dissolution | Coloration of the solution of the dye (solvatochromic effect) ([6]; in the phenylsilicones, not for the other oils): pink coloration | Dissolution in the other silicone-based media after cooling to room temperature ([6]; non-phenylated silicone media, room temperature): virtually undissolved | Dissolution at elevated temperature in non-phenylated oils ([6]; non-phenylated silicone oils, elevated temperature): dissolves poorly | Dissolution at elevated temperature in the phenylated oils ([6]; phenylated silicone oils, irrespective of viscosity, elevated temperature): complete | Dissolution in phenylsilicones after cooling to room temperature ([6]; phenylsilicones, room temperature): virtually complete dissolution

C1=CC(c2ccccc2)(c2ccc(N3CCOCC3)cc2)Oc2cc(N3CCOCC3)c3ccccc3c21 (stereo not drawn) [3-phenyl-3-(4-morpholinophenyl)-6-morpholino-3H-naphtho[2,1-b]pyran]
ΔE [1]: 53
